Data from patent publication US20100021885A1, “REAGENT SETS AND GENE SIGNATURES FOR NON-GENOTOXIC HEPATOCARCINOGENICITY” (priority 2006, published 2010).
Like-named read-outs stand apart in the source and are kept apart here.

Tests used:
liver of rats = details: cited from earlier work
[1] = system: livers from treated male Sprague-Dawley rats
Experimental: Briefly, in vivo short-term repeat dose rat studies were conducted on over 580 test compounds, including marketed and withdrawn drugs, environmental and industrial toxicants, and standard biochemical reagents. Rats (three per group) were dosed daily at either a low or high dose. […] Animals were necropsied on days 0.25, 1, 3, and 5 or 7. Up to 13 tissues (e.g., liver, kidney, heart, bone marrow, blood, spleen, brain, intestine, glandular and nonglandular stomach, lung, muscle, and gonads) were collected for histopathological evaluation and microarray expression profiling on the Amersham CodeLink™ RU1 platform (also referred to herein as “CodeLink Uniset™ Rat 1 Bioarray”). In addition, a clinical pathology panel consisting of 37 clinical chemistry and hematology parameters was generated from blood samples collected on days 3 and 5.
The remaining 21 NGTC chemicals and 26 NC chemicals were reserved for independent validation of the signature. Each chemical was evaluated in a short term repeat dose in vivo study in male Sprague-Dawley rats (n=3/group). The livers from treated and control rats were collected after 1, 3 and 5 days of dosing and RNA was extracted for gene expression profiling. Gene expression changes in treated animals were compared to suitably matched controls and represented as average log10 ratios for each treatment group. Since the development of tumors is a long term multi-step process, the 100 training set chemicals were profiled at the latest time point in order to capture gene expression changes that were likely to be reflective of repeat dose treatment effects that contribute to carcinogenicity and not reflective of an initial stimulus following a single dose that may be transient in nature.
Male Sprague-Dawley (Crl:CD®(SD)(IGS)BR) rats (weight matched, 7 to 8 weeks of age and averaging 200 to 250 g) were purchased from Charles River Laboratories (Portage, Mich.) and housed individually in hanging, stainless steel, wire-bottom cages in a temperature (66-77° F.), light (12-hour dark/light cycle) and humidity (30-70%) controlled room. […] Housing and treatment of the animals were in accordance with regulations outlined in the USDA Animal Welfare Act (9 CFR Parts 1, 2 and 3). Animals were assigned to groups such that mean body weights were within 10% of the mean vehicle control group. Test articles were administered either orally (10 ml of corn oil/kg body weight) or by intra-peritoneal injection (5 ml of saline/kg body weight), as indicated. Animals were dosed once daily starting on day 0, and necropsied 24 hrs after the last dose, as indicated. An equivalent number of time- and vehicle-matched control rats were treated concurrently.
Briefly, liver samples from 3 rats were chosen from each treatment and control group for gene expression analysis on the Codelink Uniset™ Rat 1 Bioarray (GE Healthcare Bio-Sciences Corp., Piscataway, N.J.). A complete list of probes on the array is provided on the Amersham Biosciences web site (www.amershambiosciences.com). Log transformed signal data for all probes were array-wise normalized used Array Qualifier (Novation Biosciences, Palo Alto, Calif.), a non-linear centralization normalization procedure adapted for the CodeLink microarray platform. Log10 ratios for each experimental group are computed as the difference between the average of the logs of the normalized experimental signals and the average of the logs of the normalized control signals for each gene.
where S is the scalar product and b is the bias term. Evaluation of S for a test experiment across the n genes in the signature determines what side of the hyperplane in m dimensional space the test experiment lies, and thus the result of the classification. Experiments with scalar products greater than 0 are considered positive for non-genotoxic hepatocarcinogenicity.

[2] = test chemicals, literature class NGTC or NC
[3] = male, Sprague-Dawley, rat, in vivo
[4] = literature-curated: induction of neoplastic lesions in the liver of rats, two year rodent bioassay results and/or class effect information
[5] = 37 gene signature, maximum scalar product over days 1, 3 and 5, scalar product greater than zero = positive
[6] = maximum of days 1, 3, 5, greater than zero = classified non-genotoxic hepatocarcinogen

Molecule: CC(=O)S[C@@H]1CC2=CC(=O)CC[C@]2(C)[C@H]2CC[C@@]3(C)[C@@H](CC[C@@]34CCC(=O)O4)[C@H]12 [SPIRONOLACTONE]
- Class (liver of rats; [2]): NGTC
- Max (maximum scalar product observed over the multiple time points) [1, 3]: 0.37

Molecule: CC(C)(Oc1ccc(CCNC(=O)c2ccc(Cl)cc2)cc1)C(=O)O [BEZAFIBRATE]
- Class (liver of rats; [2]): NGTC
- Max (maximum scalar product observed over the multiple time points) [1, 3]: 2.72

Molecule: CC(C)(Oc1ccc(C2CCCc3ccccc32)cc1)C(=O)O (stereo not shown) [NAFENOPIN]
- Class (liver of rats; [4]): NGTC

Molecule: Cc1cccc(Nc2cc(Cl)nc(SCC(=O)O)n2)c1C [PIRINIXIC ACID]
- Class (liver of rats; [4]): NGTC

Molecule: OC(Cn1cncn1)(Cn1cncn1)c1ccc(F)cc1F [FLUCONAZOLE]
- Class (liver of rats; [2]): NGTC
- Max (maximum scalar product observed over the multiple time points) [1, 3]: 3.63

Molecule: CCO [ETHANOL]
- Class (liver of rats; [4]): NGTC

Molecule: C[C@]12CC[C@H]3[C@@H](CCC4=CC(=O)CC[C@@]43C)[C@@H]1CC[C@@H]2O [TESTOSTERONE]
- Class (liver of rats; rat, in vivo): NGTC
- Day 1 (scalar product) ([1]; male, rat, in vivo): 0.25
- Day 3 (scalar product) ([1]; male, rat, in vivo): 0.45
- Day 5 (scalar product) ([1]; male, rat, in vivo): −0.63
- Max (maximum scalar product observed over the multiple time points) ([1]; male, rat, in vivo): 0.45

Molecule: C[C@]12CCC(=O)C=C1CC[C@@H]1[C@@H]2CC[C@@]2(C)[C@H]1CC[C@]2(C)O [17-METHYLTESTOSTERONE]
- Class (liver of rats; [4]): NGTC

Molecule: ClC(Cl)(Cl)Cl [carbon tetrachloride, reference compound]
- Class (liver of rats; [2]): NGTC
- signature prediction for non-genotoxic hepatocarcinogenicity [1, 5]: positive
- Max (maximum scalar product observed over the multiple time points) [1, 6]: 0.50

Molecule: CC[C@H](C)C(=O)O[C@H]1C[C@@H](C)C=C2C=C[C@H](C)[C@H](CC[C@@H]3C[C@@H](O)CC(=O)O3)[C@H]21 [LOVASTATIN]
- Class (liver of rats; [2]): NGTC
- Max (maximum scalar product observed over the multiple time points) [1, 3]: 1.07

Molecule: C[C@]12CC[C@@H]3c4ccc(O)cc4CC[C@H]3[C@@H]1C[C@@H](O)[C@@H]2O [ESTRIOL]
- Class (liver of rats; rat, in vivo): NGTC

Molecule: COC(=O)Nc1nc2ccc([S+]([O-])c3ccccc3)cc2[nH]1 (stereo not shown) [OXFENDAZOLE]
- Class (liver of rats; [2]): NGTC
- Max (maximum scalar product observed over the multiple time points) [1, 3]: 0.32

Molecule: O=c1cc(-c2ccccc2)oc2ccc3ccccc3c12 [BETA-NAPHTHOFLAVONE]
- Class (liver of rats; [2]): NGTC
- Max (maximum scalar product observed over the multiple time points) [1, 6]: 0.81

Molecule: CC(=N)S [THIOACETAMIDE]
- Class (liver of rats; [4]): NGTC

Molecule: CN(C)CCN(Cc1cccs1)c1ccccn1
- Class (liver of rats; [4]): NGTC

Molecule: CCCCC(CC)COC(=O)c1ccccc1C(=O)OCC(CC)CCCC (stereo not shown) [BIS(2-ETHYLHEXYL)PHTHALATE]
- Class (liver of rats; rat, in vivo): NGTC
- Day 1 (scalar product) ([1]; rat, in vivo): 0.47
- Day 3 (scalar product) ([1]; rat, in vivo): 1.04
- Day 5 (scalar product) ([1]; rat, in vivo): −0.09
- Max (maximum scalar product observed over the multiple time points) ([1]; rat, in vivo): 1.04

Molecule: NC(=O)N1c2ccccc2C=Cc2ccccc21 [CARBAMAZEPINE]
- Class (liver of rats; [2]): NGTC
- Max (maximum scalar product observed over the multiple time points) [1, 3]: −0.35

Molecule: ClC(Cl)Cl [chloroform, reference compound]
- Class (liver of rats; rat, in vivo): NGTC
- Day 1 (scalar product) ([1]; male, rat, in vivo): 1.50
- Day 3 (scalar product) ([1]; male, rat, in vivo): 0.74
- Day 5 (scalar product) ([1]; male, rat, in vivo): 0.27
- Max (maximum scalar product observed over the multiple time points) ([1]; male, rat, in vivo): 1.50

Molecule: CCCC(C)C1(CC)C(=O)NC(=O)NC1=O (stereo not shown) [PENTOBARBITAL]
- Class (liver of rats; [4]): NGTC

Molecule: CCN(CC)N=O [N-nitrosodiethylamine, reference compound]
- Class (liver of rats; rat, in vivo): GTC
- Day 1 (scalar product) ([1]; male, rat, in vivo): −2.17
- Day 3 (scalar product) ([1]; male, rat, in vivo): −1.83
- Day 5 (scalar product) ([1]; male, rat, in vivo): −1.41
- Max (maximum scalar product observed over the multiple time points) ([1]; male, rat, in vivo): −1.41
- signature prediction for non-genotoxic hepatocarcinogenicity ([1]; rat, in vivo): negative

Molecule: aflatoxin B1
- Class (liver of rats; rat, in vivo): GTC

Molecule: CC(=O)Nc1ccc2c(c1)Cc1ccccc1-2 [2-acetylaminofluorene, reference compound]
- Class (liver of rats; genotoxic hepatocarcinogens section): GTC
- signature prediction for non-genotoxic hepatocarcinogenicity [1, 5]: weakly positive
- scalar product (SP) ([1]; 37 gene signature, maximum scalar product over the time points): 0.03
- Max (maximum scalar product observed over the multiple time points) [1, 6]: 0.03

Molecule: CCOC(=O)C(C)(C)Oc1ccc(Cl)cc1 [CLOFIBRATE]
- Class (liver of rats; [4]): NGTC

Molecule: C=CCc1ccc2c(c1)OCO2 [SAFROLE]
- Class (liver of rats; rat, in vivo): NGTC

Molecule: CC/C(=C(/CC)c1ccc(O)cc1)c1ccc(O)cc1 [DIETHYLSTILBESTROL]
- Class (liver of rats; [2]): NGTC
- Max (maximum scalar product observed over the multiple time points) [1, 3]: 2.75

Molecule: CC(=O)[C@H]1CC[C@H]2[C@@H]3CCC4=CC(=O)CC[C@]4(C)[C@H]3CC[C@]12C [PROGESTERONE]
- Class (liver of rats; [4]): NGTC

Molecule: CC[C@]1(O)CC[C@H]2[C@@H]3CCC4=CCCC[C@@H]4[C@H]3CC[C@@]21C [ETHYLESTRENOL]
- Class (liver of rats; [2]): NGTC
- Max (maximum scalar product observed over the multiple time points) [1, 6]: 2.25

Molecule: CC(=O)O[C@]1(C(C)=O)CC[C@H]2[C@@H]3C=C(Cl)C4=CC(=O)[C@@H]5C[C@@H]5[C@]4(C)[C@H]3CC[C@@]21C [CYPROTERONE ACETATE]
- Class (liver of rats; [2]): NGTC
- Max (maximum scalar product observed over the multiple time points) [1, 3]: 1.16

Molecule: C[C@]12Cc3c[nH]nc3C[C@@H]1CC[C@@H]1[C@@H]2CC[C@@]2(C)[C@H]1CC[C@]2(C)O [STANOZOLOL]
- Class (liver of rats; [2]): NGTC
- Max (maximum scalar product observed over the multiple time points) [1, 6]: 0.54

Molecule: Clc1cc2c(cc1Cl)Oc1cc(Cl)c(Cl)cc1O2 [2,3,7,8-TETRACHLORODIBENZO-P-DIOXIN]
- Class (liver of rats; [4]): NGTC

Molecule: C#C[C@]1(O)CC[C@H]2[C@@H]3CCc4cc(O)ccc4[C@H]3CC[C@@]21C [ETHINYLESTRADIOL]
- Class (liver of rats; [4]): NGTC

Molecule: COC(=O)Nc1nc2ccc(Sc3ccccc3)cc2[nH]1 [FENBENDAZOLE]
- Class (liver of rats; [2]): NGTC
- Max (maximum scalar product observed over the multiple time points) [1, 6]: 0.17

Molecule: CC(C)OC(=O)C(C)(C)Oc1ccc(C(=O)c2ccc(Cl)cc2)cc1 [FENOFIBRATE]
- Class (liver of rats; [4]): NGTC

Molecule: CCN(CC)CCOc1ccc(C(=C(Cl)c2ccccc2)c2ccccc2)cc1 [CLOMIPHENE]
- Max (maximum scalar product observed over the multiple time points) [1, 3]: −1.71

Molecule: CC(NC(C)(C)C)C(=O)c1cccc(Cl)c1 (stereo not shown) [BUPROPION]
- Class (liver of rats; [4]): NGTC

Molecule: CC(C)(C)NC(=O)[C@H]1CC[C@H]2[C@@H]3CC[C@H]4NC(=O)C=C[C@]4(C)[C@H]3CC[C@]12C [FINASTERIDE]
- Max (maximum scalar product observed over the multiple time points) [1, 3]: 0.22

Molecule: NN [hydrazine, reference compound]
- Class (liver of rats; rat, in vivo): GTC
- Day 1 (scalar product) ([1]; male, rat, in vivo): −0.10
- Day 3 (scalar product) ([1]; male, rat, in vivo): −1.31
- Day 5 (scalar product) ([1]; male, rat, in vivo): −1.48
- Max (maximum scalar product observed over the multiple time points) ([1]; male, rat, in vivo): −0.10
- signature prediction for non-genotoxic hepatocarcinogenicity ([1]; rat, in vivo): negative

Molecule: Nc1ccn([C@@H]2O[C@H](CO)[C@@H](O)[C@@H]2O)c(=O)n1 [CYTARABINE]
- Max (maximum scalar product observed over the multiple time points) [1, 3]: −0.71

Molecule: CC[C@H](C)C(=O)O[C@H]1C[C@H](O)C=C2C=C[C@H](C)[C@H](CC[C@@H](O)C[C@@H](O)CC(=O)O)[C@H]21 [PRAVASTATIN]
- Class (liver of rats; [4]): NGTC

Molecule: Cc1ccc(C)c(OCCCC(C)(C)C(=O)O)c1 [GEMFIBROZIL]
- Class (liver of rats; [4]): NGTC

Molecule: CC(O)CO (stereo not shown) [propylene glycol, reference compound]
- Max (maximum scalar product observed over the multiple time points) [1, 3]: −0.80
- signature prediction for non-genotoxic hepatocarcinogenicity ([1]; rat, in vivo): negative

Molecule: CN(C)CCCC1(c2ccc(F)cc2)OCc2cc(C#N)ccc21 (stereo not shown) [CITALOPRAM]
- Max (maximum scalar product observed over the multiple time points) [1, 3]: −0.28
